This is an account of results in patent US9879023B2, “Therapeutic compounds” (Gilead Sciences, Inc., priority 2011, dated 2018).

In one assay the test system is HIV-IIIb (MT-4 cells). The assay is described as follows: Test A: Antiviral Assays in MT4 Cells. The format is cell-based. Conditions: Human immunodeficiency virus 1, IIIB, MT4, 120 h. The procedure: Test A: Antiviral Assays in MT4 Cells
For the antiviral assay utilizing MT-4 cells, 0.4 μL of […] test concentration of 3-fold serially diluted compound in DMSO was added to 40 μL of cell growth medium (RPMI 1640, 10% FBS, 1% penicilline/Streptomycine, 1% L-Glutamine, 1% HEPES) in each well of 384-well assay plates (10 concentrations) in quadruplicate.
1 mL aliquots of 2×10e6 MT-4 cells are pre-infected for 1 and 3 hrs respectively, @37° C. with 25 uL (MT4) or of either cell growth medium (mock-infected) or a fresh 1:250 dilution of an HIV-IIIb concentrated ABI stock (0.004 m.o.i. for MT4 cells). Infected and uninfected cells are diluted in cell growth medium and 35 uL of 2000 (for MT4) cells is added to each well of the assay plates.
Assay plates were then incubated in a 37° C. incubator. After 5 days of incubation, 25 μl of 2× concentrated CellTiter-Glo™ Reagent (catalog # G7573, Promega Biosciences, Inc., Madison, Wis.) was added to each well of the assay plate. Cell lysis was carried out by incubating at room temperature for 2-3 min and then chemiluminescence was read using the Envision reader (PerkinElmer). […]
In general, EC50 refers to the concentration at which the effect is half-maximal. With `Cc1cc2nc(N(C)C)sc2c(-c2ccc3c4c(ccnc24)CCO3)c1[C@H](OC(C)(C)C)C(=O)O` (atropisomer, axis not shown) [Compound 43, (S)-2-tert-butoxy-2-((R)-7-(2,3-dihydropyrano[4,3,2-de]quinolin-7-yl)-2-(dimethylamino)-5-methylbenzo[d]thiazol-6-yl)acetic acid], it took 5090 nM to reach a half-maximal effect (EC50).

Staying with this assay, now noted: Human immunodeficiency virus 1, IIIB, MT4, 120 h, MT-4 cells infected with HIV-IIIb (0.004 m.o.i.), 5 days incubation, CellTiter-Glo readout; read-out: EC50.
As to `CC(=O)Nc1nc2cc(C)c([C@H](OC(C)(C)C)C(=O)O)c(-c3ccc4c5c(ccnc35)CCO4)c2s1` (atropisomer, axis not shown) [Compound 93, (S)-2-((S)-2-acetamido-7-(2,3-dihydropyrano[4,3,2-de]quinolin-7-yl)-5-methylbenzo[d]thiazol-6-yl)-2-tert-butoxyacetic acid], the EC50 was determined as 1420 nM.

As for `Cc1cc2nc(C(F)F)sc2c(-c2ccc3c4c(ccnc24)CCO3)c1[C@H](OC(C)(C)C)C(=O)O` (atropisomer, axis not shown) [Compound 92, (S)-2-tert-butoxy-2-((S)-2-(difluoromethyl)-7-(2,3-dihydropyrano[4,3,2-de]quinolin-7-yl)-5-methylbenzo[d]thiazol-6-yl)acetic acid], the EC50 is 353 nM.

As to `Cc1cc2nc(C3CC3)sc2c(-c2ccc3c4c(cccc24)CCO3)c1[C@H](OC(C)(C)C)C(=O)O` [Compound 85, (S)-2-tert-butoxy-2-((S)-2-cyclopropyl-7-(2,3-dihydrobenzo[de]chromen-7-yl)-5-methylbenzo[d]thiazol-6-yl)acetic acid], the EC50 is 66.4 nM.

`Cc1cc2nc(N(C)Cc3ccccc3)sc2c(-c2ccc3c4c(ccnc24)CCO3)c1[C@H](OC(C)(C)C)C(=O)O` [Compound 63, (2S)-2-(2-(benzyl(methyl)amino)-7-(2,3-dihydropyrano[4,3,2-de]quinolin-7-yl)-5-methylbenzo[d]thiazol-6-yl)-2-tert-butoxyacetic acid]: the EC50 was determined as 351 nM.

Take `Cc1cc2c(sc(=O)n2Cc2ccccc2C(F)(F)F)c(-c2ccc3c4c(ccnc24)CCO3)c1[C@H](OC(C)(C)C)C(=O)O` (atropisomer, axis not shown) [Compound 71, (S)-2-tert-butoxy-2-((S)-7-(2,3-dihydropyrano[4,3,2-de]quinolin-7-yl)-5-methyl-2-oxo-3-(2-(trifluoromethyl)benzyl)-2,3-dihydrobenzo[d]thiazol-6-yl)acetic acid]: the EC50 turned out to be 984 nM.

With `Cc1cc2c(sc(=O)n2Cc2cccc(C(F)(F)F)c2)c(-c2ccc3c4c(ccnc24)CCO3)c1[C@H](OC(C)(C)C)C(=O)O` (atropisomer, axis not shown) [Compound 73, (S)-2-tert-butoxy-2-((S)-7-(2,3-dihydropyrano[4,3,2-de]quinolin-7-yl)-5-methyl-2-oxo-3-(3-(trifluoromethyl)benzyl)-2,3-dihydrobenzo[d]thiazol-6-yl)acetic acid], the EC50 was found to be 52.2 nM.

On to `Cc1cc2nc(OC(C)C)sc2c(-c2ccc3c4c(ccnc24)CCO3)c1[C@H](OC(C)(C)C)C(=O)O` (atropisomer, axis not shown) [Compound 70, (S)-2-tert-butoxy-2-((S)-7-(2,3-dihydropyrano[4,3,2-de]quinolin-7-yl)-2-isopropoxy-5-methylbenzo[d]thiazol-6-yl)acetic acid], for which the EC50 was found to be 80.8 nM.

Turning to `Cc1cc2nc(N(C)CC(=O)N(C)C)sc2c(-c2ccc3c4c(ccnc24)CCO3)c1[C@H](OC(C)(C)C)C(=O)O` (atropisomer, axis not shown) [Compound 64, (S)-2-tert-butoxy-2-((R)-7-(2,3-dihydropyrano[4,3,2-de]quinolin-7-yl)-2-((2-(dimethylamino)-2-oxoethyl)(methyl)amino)-5-methylbenzo[d]thiazol-6-yl)acetic acid], the EC50 was determined as 53000 nM.

Consider `Cc1cc2nc(CC(C)C)sc2c(-c2ccccc2)c1[C@H](OC(C)(C)C)C(=O)O` [Compound 8K, (S)-2-tert-butoxy-2-(2-isobutyl-5-methyl-7-phenylbenzo[d]thiazol-6-yl)acetic acid], for which the EC50 amounted to 641 nM.

For `COc1ccc(CNC(=O)c2nc3cc(C)c([C@H](OC(C)(C)C)C(=O)O)c(-c4ccc5c6c(ccnc46)CCO5)c3s2)cc1` (atropisomer, axis not shown) [Compound 99, (S)-2-tert-butoxy-2-((S)-7-(2,3-dihydropyrano[4,3,2-de]quinolin-7-yl)-2-(4-methoxybenzylcarbamoyl)-5-methylbenzo[d]thiazol-6-yl)acetic acid], the EC50 came to 560 nM.

Take `Cc1cc2nc(C3CC3)sc2c(-c2ccc(Cl)cc2)c1[C@H](OC(C)(C)C)C(=O)O` [Compound 10]: the EC50 is 121 nM.

As for `Cc1cc2ncsc2c(-c2ccc3c4c(ccnc24)CCO3)c1[C@H](OC(C)(C)C)C(=O)O` (atropisomer, axis not shown) [Compound 95, (S)-2-tert-butoxy-2-((S)-7-(2,3-dihydropyrano[4,3,2-de]quinolin-7-yl)-5-methylbenzo[d]thiazol-6-yl)acetic acid], the EC50 turned out to be 655 nM.

Regarding `Cc1cc2c(sc(=O)n2Cc2ccc(C(F)(F)F)cc2)c(-c2ccc3c4c(ccnc24)CCO3)c1[C@H](OC(C)(C)C)C(=O)O` (atropisomer, axis not shown) [Compound 74, (S)-2-tert-butoxy-2-((S)-7-(2,3-dihydropyrano[4,3,2-de]quinolin-7-yl)-5-methyl-2-oxo-3-(4-(trifluoromethyl)benzyl)-2,3-dihydrobenzo[d]thiazol-6-yl)acetic acid], the EC50 came out at 650 nM.

Staying with this assay, now noted: MT-4 cells infected with HIV-IIIb (0.004 m.o.i.), 5 days incubation, CellTiter-Glo readout; read-out: EC50.
As for `Cc1cc2nc(N(C)C(C)C)sc2c(-c2ccc3c4c(ccnc24)CCO3)c1[C@H](OC(C)(C)C)C(=O)O` (atropisomer, axis not shown) [Compound 47, (S)-2-tert-butoxy-2-((R)-7-(2,3-dihydropyrano[4,3,2-de]quinolin-7-yl)-2-(isopropyl(methyl)amino)-5-methylbenzo[d]thiazol-6-yl)acetic acid], the EC50 was determined as 26500 nM.

In the case of `Cc1cc2nc(C3CC3)sc2c(-c2ccc3c4c(ccnc24)CCO3)c1[C@H](OC(C)(C)C)C(=O)O` [Compound 21, (S)-2-tert-butoxy-2-((S)-2-cyclopropyl-7-(2,3-dihydropyrano[4,3,2-de]quinolin-7-yl)-5-methylbenzo[d]thiazol-6-yl)acetic acid], the EC50 amounted to 14.9 nM.

`Cc1cc2nc(C3CC3)sc2c(-c2ccc3c(c2Cl)NCCO3)c1[C@H](OC(C)(C)C)C(=O)O` (atropisomer, axis not shown) [Compound 87, (S)-2-tert-butoxy-2-((R)-7-(5-chloro-3,4-dihydro-2H-benzo[b] [1,4]oxazin-6-yl)-2-cyclopropyl-5-methylbenzo[d]thiazol-6-yl)acetic acid]: the EC50 was 1570 nM.

With `Cc1cc2nc(N(C)CC3OCCO3)sc2c(-c2ccc3c4c(ccnc24)CCO3)c1[C@H](OC(C)(C)C)C(=O)O` (atropisomer, axis not shown) [Compound 60, (S)-2-((R)-2-(((1,3-dioxolan-2-yl)methyl)(methyl)amino)-7-(2,3-dihydropyrano[4,3,2-de]quinolin-7-yl)-5-methylbenzo[d]thiazol-6-yl)-2-tert-butoxyacetic acid], the EC50 worked out at 34500 nM.

For `Cc1cc2nc(N3CCC3)sc2c(-c2ccc3c4c(ccnc24)CCO3)c1[C@H](OC(C)(C)C)C(=O)O` [Compound 36, (S)-2-((R)-2-(azetidin-1-yl)-7-(2,3-dihydropyrano[4,3,2-de]quinolin-7-yl)-5-methylbenzo[d]thiazol-6-yl)-2-tert-butoxyacetic acid], the EC50 stood at 6210 nM.

Consider `Cc1cc2nc(N(C)CCN(C)C)sc2c(-c2ccc3c4c(ccnc24)CCO3)c1[C@H](OC(C)(C)C)C(=O)O` (atropisomer, axis not shown) [Compound 61, (S)-2-tert-butoxy-2-((S)-7-(2,3-dihydropyrano[4,3,2-de]quinolin-7-yl)-2-((2-(dimethylamino)ethyl)(methyl)amino)-5-methylbenzo[d]thiazol-6-yl)acetic acid], for which the 50% effective concentration (EC50) is 987 nM.

For `Cc1cc2nc(C3=CCCC3)sc2c(-c2ccc3c4c(ccnc24)CCO3)c1[C@H](OC(C)(C)C)C(=O)O` (atropisomer, axis not shown) [Compound 78, (S)-2-tert-butoxy-2-((S)-2-cyclopentenyl-7-(2,3-dihydropyrano[4,3,2-de]quinolin-7-yl)-5-methylbenzo[d]thiazol-6-yl)acetic acid], the EC50 was 726 nM.

For `Cc1cc2nc(N(C)CC3OCCO3)sc2c(-c2ccc3c4c(ccnc24)CCO3)c1[C@H](OC(C)(C)C)C(=O)O` (atropisomer, axis not shown) [Compound 59, (S)-2-((S)-2-(((1,3-dioxolan-2-yl)methyl)(methyl)amino)-7-(2,3-dihydropyrano[4,3,2-de]quinolin-7-yl)-5-methylbenzo[d]thiazol-6-yl)-2-tert-butoxyacetic acid], the EC50 turned out to be 149 nM.

For the compound `Cc1cc2nc(N(C)CC(C)C)sc2c(-c2ccc3c4c(ccnc24)CCO3)c1[C@H](OC(C)(C)C)C(=O)O` (atropisomer, axis not shown) [Compound 49, (S)-2-tert-butoxy-2-((R)-7-(2,3-dihydropyrano[4,3,2-de]quinolin-7-yl)-2-(isobutyl(methyl)amino)-5-methylbenzo[d]thiazol-6-yl)acetic acid], the EC50 was 13300 nM.
